{"source": "PubChem BioAssay AID2305", "about": "(GlaxoSmithKline (GSK), 2010)", "data": [{"system": "P. falciparum 3D7 growth, pLDH absorbance", "experiment": "blood-stage malaria parasite growth potency – strain 3D7, dose response (AID 2305)", "units": {"IC50": "nM"}, "values": [{"smiles": "CC(C)c1ccc(NC(=O)Nc2ccc(Cn3ncc(N4CCCNCC4)c(Cl)c3=O)cc2)cc1", "IC50": 1050}, {"smiles": "CCN(CC)CCCN1CCN(C(=O)c2cccc(-c3noc(C(F)(F)F)n3)c2)CC1", "IC50": 150}, {"smiles": "O=S(=O)(Nc1cccc(CCN2CCC(N3CCCCC3)CC2)c1)c1ccc(Oc2ccccc2)nc1", "IC50": 930}, {"smiles": "COc1ccc(C(=O)NC(Nc2ccc([N+](=O)[O-])cc2)C(Cl)(Cl)Cl)cc1", "note": "(centres undefined)", "IC50": 1070}, {"smiles": "COc1cccc(CN2CCC(CCOC(c3ccccc3)c3ccc(Cl)cc3)CC2)c1O", "note": "(centres undefined)", "IC50": 710}, {"smiles": "CC(=O)N[C@H](C(=O)Nc1cccc(-c2ccc(-c3nc4c(C)cccc4[nH]3)s2)c1)C(C)C", "IC50": 760}, {"smiles": "O=C(Nc1ccc(N2CCN(C(=O)C=Cc3ccccc3)CC2)c(Cl)c1)c1ccc([N+](=O)[O-])o1", "IC50": 860}, {"smiles": "Cc1cc(C(F)(F)F)cc(-n2ncc(-c3ccc(C(=O)NCCNCc4ccccc4)cc3)c2N)n1", "IC50": 1070}, {"smiles": "CC(C(=O)NC1CCN(c2ccnc(Nc3ccc(F)cc3)n2)C1)c1ccc(Cl)cc1", "note": "(centres undefined)", "IC50": 860}, {"smiles": "CCNc1cc(C)nc(Nc2ccc(NS(=O)(=O)c3ccccc3)cc2)n1", "IC50": 790}, {"smiles": "Cc1cc(N[C@@H](Cc2ccccc2)C(=O)Nc2ccccc2)nc(NCCc2ccccn2)n1", "IC50": 870}, {"smiles": "O=C(COc1ccc(F)cc1)NC1CCN(c2ccnc3cc(Cl)ccc23)C1", "note": "(centres undefined)", "IC50": 270}, {"smiles": "O=S(=O)(NCCN1CCCC1)c1cccc(-c2cccc(CNCc3ccccc3)c2)c1", "IC50": 810}, {"smiles": "Nc1ccc2[nH]cc(C3CCN(CC4CCN(C(=O)/C=C/c5ccc(Cl)c(Cl)c5)CC4)CC3)c2n1", "IC50": 700}, {"smiles": "COc1ccc(OC)c(Cc2c(C)nc3nc(N)nc(N)c3c2C)c1", "IC50": 860}, {"smiles": "O=C(c1ccc(-c2ccc(-c3nc4ccc(F)cc4[nH]3)cc2)cc1)N1CCCCC1CN1CCC(O)C1", "note": "(centres undefined)", "IC50": 370}, {"smiles": "CCN(CC)CCCC(C)Nc1c2ccc(Cl)cc2nc2ccc(OC)cc12", "note": "(centres undefined)", "IC50": 40}, {"smiles": "COc1ccc(-c2csc3nc(C)nc(Cl)c23)cc1OC", "IC50": 360}, {"smiles": "COc1ccc(C(=O)CCc2ccc(O)cc2)cc1", "IC50": 480}, {"smiles": "CCCOc1cc(OCCC)cc(-c2cc(=O)c3ccccc3[nH]2)c1", "IC50": 60}, {"smiles": "COCCOc1ccc(Nc2nccc(-c3c(-c4cccc(NC(=O)c5c(F)cccc5F)c4)nn4ccccc34)n2)cc1F", "IC50": 950}, {"smiles": "CC(C)[C@@H](NC(=O)NC1CCC(CCN2[C@@H]3CC[C@H]2CC(OC(=O)C(CO)c2ccccc2)C3)CC1)C(O)(c1ccccc1)c1ccccc1", "note": "(some centres undefined)", "IC50": 810}, {"smiles": "COc1ccc(CC(=O)NC(CCN2CCC3(CCc4ccccc43)CC2)c2ccc(Cl)c(Cl)c2)cc1", "note": "(centres undefined)", "IC50": 530}, {"smiles": "COc1ccc2nccc(CCC3(O)CCC(NCc4cc5c(cc4F)SCC(=O)N5)CC3)c2c1", "note": "(centres undefined)", "IC50": 670}, {"smiles": "Cc1c(C)c2c(c(C)c1O)CC[C@](C)(C(=O)N1CCC(CN3CCC(c4c[nH]c5ccccc45)CC3)CC1)O2", "IC50": 720}, {"smiles": "Cn1nccc1C(=O)NCCNCc1cccc(-c2ccc(-c3nc4ccc(C(F)(F)F)cc4[nH]3)s2)c1", "IC50": 150}, {"smiles": "CCn1cc(C=C2Oc3c(ccc(O)c3CN3CCCCC3C)C2=O)c2ccccc21", "note": "(centres undefined)", "IC50": 1020}, {"smiles": "CC(C)n1nc(C(=O)N2CCN(c3ccccc3)CC2)c2ccccc2c1=O", "IC50": 980}, {"smiles": "NC(=O)c1cccc(C(=O)Nc2cccc(-c3ccc(-c4nc5ccc(C(F)(F)F)cc5[nH]4)cc3)c2)c1", "IC50": 520}, {"smiles": "Nc1c2c(nc3ccc(Oc4ccc(Cl)cc4)cc13)CCCC2", "IC50": 970}, {"smiles": "Cc1cccc2[nH]c(-c3ccc(-c4cccc(CNCCCNS(C)(=O)=O)c4)s3)nc12", "IC50": 1020}, {"smiles": "CC1CCCCN1CCCNc1ncc2c(-c3ccc(NC(=O)Nc4cc(C(F)(F)F)ccc4F)c(F)c3)nn(C)c2n1", "note": "(centres undefined)", "IC50": 260}, {"smiles": "Fc1ccc2[nH]c(-c3ccccc3)nc2c1CN1CCC(N2CCCC2)CC1", "IC50": 720}, {"smiles": "O=[N+]([O-])c1cccc(C(Nc2ccccn2)c2ccc3cccnc3c2O)c1", "note": "(centres undefined)", "IC50": 1330}, {"smiles": "O=C(NCC1CCN(CC2CCCCC2)C1)c1cc(-c2cccc(C(F)(F)F)c2)cs1", "note": "(centres undefined)", "IC50": 740}, {"smiles": "Cc1cccc(N2CCN(Cc3cc(Cl)ccc3O)CC2)c1C", "IC50": 770}, {"smiles": "c1ccc(-c2ccc(-c3nc4ccccc4[nH]3)cc2)cc1", "IC50": 810}, {"smiles": "CCCCN(CCCC)CCCCCCNc1c2ccccc2nc2ccccc12", "IC50": 780}, {"smiles": "CCCC(C)Nc1nc(C)cc(NCCC(=O)Nc2ccc(OC)cc2)n1", "note": "(centres undefined)", "IC50": 1380}, {"smiles": "COc1ccc(Nc2nc(NN=Cc3cc(Br)ccc3O)nc(Nc3ccc([N+](=O)[O-])cc3)n2)cc1", "IC50": 220}, {"smiles": "COCC(=O)N(Cc1ccccc1-c1ccc(CNCCc2ccccc2)cc1)C1CCN(Cc2ccccc2)CC1", "IC50": 890}, {"smiles": "CC(Cc1ccc(S(=O)(=O)N(C(C)C)C(C)C)cc1)NCC(O)c1cccc(C(F)(F)F)c1", "note": "(centres undefined)", "IC50": 690}, {"smiles": "N#Cc1ccc2c(c1)CCN(CCC1CCC(NC(=O)/C=C/c3cnc4ccccc4c3)CC1)CC2", "note": "(centres undefined)", "IC50": 1210}, {"smiles": "O=C(/C=C/c1ccc(Cl)c(Cl)c1)NCCCCCN1CCC(CCNC(=O)/C=C/c2ccccc2F)CC1", "IC50": 870}, {"smiles": "COc1cc(NC(=O)/C=C/c2ccccc2OC(F)(F)F)cc(OCCN2CCCCC2)c1", "IC50": 190}, {"smiles": "O=C(N[C@@H](Cc1cc(F)cc(F)c1)[C@H](O)CNCc1cccc(C(F)(F)F)c1)c1cc(C2CCCC2)cc(N2CCCC2=O)c1", "IC50": 800}, {"smiles": "Cc1cccc(OC2CCN(c3ncc(C(=O)NCCCN4CCCC4=O)cc3Cl)CC2)c1", "IC50": 180}, {"smiles": "COc1ccc(CN2CCC(CNCCc3c(Cl)cccc3Cl)CC2)cc1", "IC50": 430}, {"smiles": "CCCCCCCn1c(=N)n(CC(O)c2ccc(Cl)c(Cl)c2)c2ccccc21", "note": "(centres undefined)", "IC50": 780}, {"smiles": "CCN(CC)CCN(Cc1ccc(-c2ccc(C(F)(F)F)cc2)cc1)C(=O)Cn1c(CCc2ccc(F)c(C#N)c2)nc(=O)c2ccccc21", "IC50": 770}, {"smiles": "O=C(Nc1cccc(CN2CCN(C(=O)c3cccc(Cl)c3)CC2)c1)c1ccco1", "IC50": 440}, {"smiles": "O=C(Nc1cccc(-c2csc(-c3nc4ccccc4[nH]3)c2)c1)c1ccoc1", "IC50": 210}, {"smiles": "Cc1cccc(CNc2nc(C)cc(N[C@@H](CC(C)C)C(=O)NCCOc3ccccc3)n2)c1", "IC50": 1080}, {"smiles": "CN1CCC(NCc2cccc(-c3ccc(S(=O)(=O)NCCN4CCCC4)s3)c2)CC1", "IC50": 930}, {"smiles": "Cc1cnc(C(=O)Nc2cccc(-c3cccc(-c4nc5c(C)cccc5[nH]4)c3)c2)cn1", "IC50": 580}, {"smiles": "O=C(Nc1ccc2nc3n(c(=O)c2c1)CCCCC3)C(=O)N1CCN(c2ccc(F)cc2)CC1", "IC50": 640}, {"smiles": "CC(C)n1ncc2c(C(=O)Nc3ccc(C#N)c(Cl)c3)cc(C3CC3)nc21", "IC50": 960}, {"smiles": "Cc1ccc(NC(=O)c2ccc(CN3CCCN(Cc4cccc(O)c4)CC3)cc2)cc1C", "IC50": 860}, {"smiles": "CCCCCC(C)C(C)c1cc(OC(N)=O)c2c(c1)OC(C)(C)C=C2c1ccncc1", "note": "(centres undefined)", "IC50": 900}, {"smiles": "CCNc1cc(C(=O)N[C@@H](Cc2ccccc2)[C@H](O)CNC(C)CC(C)C)c(F)c(N2CCCCS2(=O)=O)c1", "note": "(some centres undefined)", "IC50": 1120}, {"smiles": "Cc1noc(C)c1-c1ccc(C(=C2CCCCCC2)c2ccc(O)cc2)cc1", "IC50": 190}, {"smiles": "COc1cc2c(Nc3cccc(NC(=O)c4ccccc4)c3)ncnc2cc1OCCCN1CCOCC1", "IC50": 150}, {"smiles": "O=C(Nc1ccc(CN2CCN(S(=O)(=O)c3cccc(Cl)c3)CC2)cc1)c1cccs1", "IC50": 1080}, {"smiles": "Cc1ccc(NC(=O)NC2CCN(CCCCCNC(=O)/C=C/c3ccc(Cl)c(Cl)c3)CC2)cc1", "IC50": 690}, {"smiles": "O=C(Nc1ccc(-c2csc3nccn23)cc1)c1ccc(Cl)cc1", "IC50": 580}, {"smiles": "CCCCCCCc1[nH]c2ccccc2c(=O)c1C", "IC50": 510}, {"smiles": "CS(=O)(=O)CCNCc1ccc(-c2ccc3c(Nc4ccc(F)cc4Cl)ccnc3c2)o1", "IC50": 740}, {"smiles": "CC(C)c1cc2c(ccc3nc(N)nc(N)c32)[nH]1", "IC50": 40}, {"smiles": "O=C(O)C[C@H](NC(=O)c1cc(-c2ccc3c(c2)OCO3)no1)C(=O)O", "note": "(tested in a mixture with another compound)", "IC50": 190}]}]}
